Earlier results on 1 substance are cited in patent US8884000B2 (priority 2010, dated 2014).

Usually Km stands for the concentration of substrate that gives half-maximal velocity. As a reminder, the kcat is the maximal rate divided by the concentration of active sites.

The target of the series is saporin-L1 (Saponaria officinalis, UniProt Q2QEH4). The note with it: pH 7.8.
saporin-L1, sequence (Q2QEH4 22-280 limits assumed): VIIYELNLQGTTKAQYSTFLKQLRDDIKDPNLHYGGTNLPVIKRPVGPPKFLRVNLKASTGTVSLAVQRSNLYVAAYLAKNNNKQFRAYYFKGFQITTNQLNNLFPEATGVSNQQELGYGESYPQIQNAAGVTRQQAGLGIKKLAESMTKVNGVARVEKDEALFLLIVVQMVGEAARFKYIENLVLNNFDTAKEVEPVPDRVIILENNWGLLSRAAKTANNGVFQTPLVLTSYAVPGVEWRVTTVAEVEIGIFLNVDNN

Take poly(A): the Km was 639 ± 32 µM and the kcat was 1.02 ± 0.017 s⁻¹.
